Results published in BindingDB's records for patent US11547697 (Millennium Pharmaceuticals, 2023).

Assays:
Test in all cases: Inhibition Assay of PI3K
[1] = target: Phosphatidylinositol 4,5-bisphosphate 3-kinase catalytic subunit beta isoform (Homo sapiens, UniProt P42338)
[2] = target: Phosphatidylinositol 4,5-bisphosphate 3-kinase catalytic subunit gamma isoform (Homo sapiens, UniProt P48736)
[3] = target: T1, Phosphatidylinositol 4,5-bisphosphate 3-kinase catalytic subunit delta isoform (Homo sapiens, UniProt O00329)
T1 sequence (O00329 whole entry): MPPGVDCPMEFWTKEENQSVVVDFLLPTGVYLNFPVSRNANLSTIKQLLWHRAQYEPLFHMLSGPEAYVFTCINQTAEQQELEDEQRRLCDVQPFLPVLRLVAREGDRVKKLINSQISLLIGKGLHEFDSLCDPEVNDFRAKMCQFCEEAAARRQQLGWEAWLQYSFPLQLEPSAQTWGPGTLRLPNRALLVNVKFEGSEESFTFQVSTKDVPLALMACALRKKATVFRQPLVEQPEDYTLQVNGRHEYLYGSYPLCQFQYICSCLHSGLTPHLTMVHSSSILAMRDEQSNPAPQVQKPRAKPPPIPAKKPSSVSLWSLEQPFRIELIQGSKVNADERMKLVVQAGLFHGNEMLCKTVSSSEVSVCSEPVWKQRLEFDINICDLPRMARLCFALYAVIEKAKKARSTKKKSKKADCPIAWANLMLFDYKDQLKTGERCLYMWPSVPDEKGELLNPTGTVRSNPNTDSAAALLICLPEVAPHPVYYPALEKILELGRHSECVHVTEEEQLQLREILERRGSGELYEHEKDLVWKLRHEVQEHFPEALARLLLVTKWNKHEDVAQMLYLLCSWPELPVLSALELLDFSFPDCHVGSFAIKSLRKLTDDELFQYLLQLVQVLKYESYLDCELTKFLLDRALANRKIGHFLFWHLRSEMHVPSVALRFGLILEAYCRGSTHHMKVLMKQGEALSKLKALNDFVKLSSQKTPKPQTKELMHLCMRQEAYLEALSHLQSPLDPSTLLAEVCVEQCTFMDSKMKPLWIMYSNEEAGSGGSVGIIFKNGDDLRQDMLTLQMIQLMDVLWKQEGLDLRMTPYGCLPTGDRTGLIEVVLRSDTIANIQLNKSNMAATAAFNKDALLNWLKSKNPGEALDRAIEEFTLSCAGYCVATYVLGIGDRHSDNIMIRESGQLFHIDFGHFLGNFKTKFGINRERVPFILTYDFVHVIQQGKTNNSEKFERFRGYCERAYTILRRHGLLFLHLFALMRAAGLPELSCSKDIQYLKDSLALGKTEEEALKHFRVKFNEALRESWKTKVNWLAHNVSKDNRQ

Chain of Phosphatidylinositol 4,5-bisphosphate 3-kinase catalytic subunit gamma isoform (P48736 whole entry, canonical isoform): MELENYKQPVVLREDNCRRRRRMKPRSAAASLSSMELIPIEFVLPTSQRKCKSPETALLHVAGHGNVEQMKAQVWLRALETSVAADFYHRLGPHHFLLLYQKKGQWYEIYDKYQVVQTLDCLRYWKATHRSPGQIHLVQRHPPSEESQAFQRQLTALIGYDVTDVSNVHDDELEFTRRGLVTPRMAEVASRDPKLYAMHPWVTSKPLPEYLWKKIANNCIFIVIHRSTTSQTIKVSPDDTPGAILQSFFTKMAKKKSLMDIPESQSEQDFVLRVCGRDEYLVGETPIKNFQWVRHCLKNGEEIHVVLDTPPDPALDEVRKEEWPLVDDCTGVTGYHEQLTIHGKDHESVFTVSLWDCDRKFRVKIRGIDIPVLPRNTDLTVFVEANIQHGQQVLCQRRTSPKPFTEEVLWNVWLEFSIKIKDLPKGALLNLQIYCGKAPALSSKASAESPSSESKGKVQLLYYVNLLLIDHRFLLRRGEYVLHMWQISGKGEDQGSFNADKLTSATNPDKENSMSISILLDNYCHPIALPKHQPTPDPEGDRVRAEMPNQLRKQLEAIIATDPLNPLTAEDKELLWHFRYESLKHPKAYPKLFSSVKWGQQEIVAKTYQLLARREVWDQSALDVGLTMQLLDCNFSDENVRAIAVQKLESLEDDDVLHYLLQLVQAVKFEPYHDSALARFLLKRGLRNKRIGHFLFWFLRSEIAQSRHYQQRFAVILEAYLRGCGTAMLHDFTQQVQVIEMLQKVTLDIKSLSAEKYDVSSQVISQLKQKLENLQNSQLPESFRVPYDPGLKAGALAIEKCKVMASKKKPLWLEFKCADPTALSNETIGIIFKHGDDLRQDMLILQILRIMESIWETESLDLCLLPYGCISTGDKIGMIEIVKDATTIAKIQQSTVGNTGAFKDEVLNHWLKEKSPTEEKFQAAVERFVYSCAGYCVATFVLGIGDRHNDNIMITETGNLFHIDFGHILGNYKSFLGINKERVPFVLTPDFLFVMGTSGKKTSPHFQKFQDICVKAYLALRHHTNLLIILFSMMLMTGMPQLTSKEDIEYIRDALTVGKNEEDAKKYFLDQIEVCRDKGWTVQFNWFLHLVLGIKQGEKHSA
Chain of Phosphatidylinositol 4,5-bisphosphate 3-kinase catalytic subunit beta isoform (P42338 whole entry, canonical isoform): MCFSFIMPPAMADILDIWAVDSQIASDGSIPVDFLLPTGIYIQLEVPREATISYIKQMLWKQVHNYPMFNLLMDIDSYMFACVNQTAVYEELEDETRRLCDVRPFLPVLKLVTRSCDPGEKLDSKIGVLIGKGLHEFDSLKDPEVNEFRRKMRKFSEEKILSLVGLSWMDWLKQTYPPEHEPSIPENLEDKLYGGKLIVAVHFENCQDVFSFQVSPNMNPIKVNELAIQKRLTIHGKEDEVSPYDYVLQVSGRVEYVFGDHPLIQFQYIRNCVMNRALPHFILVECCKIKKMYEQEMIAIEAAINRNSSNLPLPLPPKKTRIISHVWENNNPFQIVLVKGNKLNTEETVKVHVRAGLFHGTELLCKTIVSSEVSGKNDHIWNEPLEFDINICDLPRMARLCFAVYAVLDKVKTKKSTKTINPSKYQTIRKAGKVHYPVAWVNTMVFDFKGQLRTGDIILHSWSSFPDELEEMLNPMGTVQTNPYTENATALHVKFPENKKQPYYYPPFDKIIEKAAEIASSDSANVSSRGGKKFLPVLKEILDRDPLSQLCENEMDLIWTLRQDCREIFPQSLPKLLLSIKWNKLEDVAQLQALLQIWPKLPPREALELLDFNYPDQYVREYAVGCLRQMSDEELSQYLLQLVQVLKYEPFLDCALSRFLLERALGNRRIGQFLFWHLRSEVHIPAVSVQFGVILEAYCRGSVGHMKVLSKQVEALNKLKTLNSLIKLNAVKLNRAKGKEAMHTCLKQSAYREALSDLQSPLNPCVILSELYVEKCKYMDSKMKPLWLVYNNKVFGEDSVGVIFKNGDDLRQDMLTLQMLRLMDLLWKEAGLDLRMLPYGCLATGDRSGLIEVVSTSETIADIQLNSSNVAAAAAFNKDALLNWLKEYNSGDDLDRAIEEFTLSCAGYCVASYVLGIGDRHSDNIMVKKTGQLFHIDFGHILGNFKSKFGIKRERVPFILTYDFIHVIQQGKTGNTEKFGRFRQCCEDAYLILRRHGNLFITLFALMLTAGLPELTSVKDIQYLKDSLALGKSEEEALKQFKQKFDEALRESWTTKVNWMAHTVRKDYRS

SMILES | IC50 [1] | IC50 [2] | IC50 [3]
Nc1ncc(-c2ccc3ncc(C(=O)N4CCOCC4)n3c2)cc1C(F)(F)F [US11547697, Compound 410] | > 10 µM | > 10 µM | > 10 µM
Nc1nc2cc(-c3ccc4ncn(C5CCOCC5)c4c3)ccc2o1 [US11547697, Compound 48] | > 10 µM | > 10 µM | > 10 µM
CNS(=O)(=O)c1cncc(-c2ccc3ncc(C(=O)N4CCOCC4)n3c2)c1 [US11547697, Compound 450] | > 10 µM | > 10 µM | > 10 µM
O=C(c1cnc2ccc(-c3ccc4oc(NC5CC5)nc4c3)cn12)N1CCOCC1 [US11547697, Compound 409] | > 10 µM | > 10 µM | > 10 µM
Nc1nc2cc(-c3ccc4ncc(N5CCN(CC6CC6)CC5=O)nc4c3)ccc2o1 [US11547697, Compound 393] | > 10 µM | > 10 µM | > 10 µM
CN1CCN(CCn2cnc3ccc(-c4ccc5oc(N)nc5c4)cc3c2=O)CC1 [US11547697, Compound 280] | > 10 µM | > 10 µM | > 10 µM
Nc1nc2cc(-c3ccc4ncc(C(=O)N5CCOCC5)nc4c3)ccc2o1 [US11547697, Compound 158] | > 10 µM | > 10 µM | > 10 µM
COc1ccc(-c2ccc3ncc(C(=O)N4CCOCC4)n3c2)cc1S(=O)(=O)Nc1ccccc1 [US11547697, Compound 444] | > 10 µM | > 10 µM | > 10 µM
Nc1cc(-c2ccc3ncc(C(=O)N4CCOCC4)n3c2)cnc1Cl [US11547697, Compound 415] | > 10 µM | > 10 µM | > 10 µM
CC1CN(C(=O)c2cnc3ccc(-c4ccc5oc(N)nc5c4)cn23)CC(C)N1 (stereo not given) [US11547697, Compound 142] | > 10 µM | > 10 µM | > 10 µM
Nc1nc2cc(-c3ccc4ncc(C(=O)N5CCOCC5)cc4c3)ccc2o1 [US11547697, Compound 97] | > 10 µM | > 10 µM | > 10 µM
Nc1nsc2cc(-c3ccc4ncc(C(=O)N5CCOCC5)n4c3)ccc12 [US11547697, Compound 489] | > 10 µM | > 10 µM | > 10 µM
CN1CCN(C(=O)c2cnc3cnc(-c4ccc5oc(N)nc5c4)cn23)CC1 [US11547697, Compound 123] | > 10 µM | > 10 µM | > 10 µM
Nc1nsc2c(-c3ccc4ncc(C(=O)N5CCOCC5)n4c3)cccc12 [US11547697, Compound 474] | > 10 µM | > 10 µM | > 10 µM
Nc1nc2ccc(-c3ccc4nnc(C(=O)N5CCCC5)n4c3)cc2o1 [US11547697, Compound 305] | > 10 µM | > 10 µM | > 10 µM
Cc1ncccc1-c1cnc2ccc(-c3ccc4oc(N)nc4c3)cc2n1 [US11547697, Compound 185] | > 10 µM | > 10 µM | > 10 µM
Nc1ncc(-c2cnc3ccc(-c4ccc5oc(N)nc5c4)cc3n2)cn1 [US11547697, Compound 210] | > 10 µM | > 10 µM | > 10 µM
Cc1cc2oc(N)nc2cc1-c1ccc2ncc(N3CC(N4CCOCC4)C3)nc2c1 [US11547697, Compound 353] | > 10 µM | > 10 µM | > 10 µM
CN1CCN(C2CN(C(=O)c3cnc4ccc(-c5ccc6oc(N)nc6c5)cn34)C2)CC1 [US11547697, Compound 303] | > 10 µM | > 10 µM | –
CN(C)CCn1cnc2ccc(-c3ccc4oc(N)nc4c3)cc2c1=O [US11547697, Compound 292] | > 10 µM | > 10 µM | > 10 µM
Nc1nc2ccc(-c3cc(F)c4ncc(C(=O)N5CCOCC5)n4c3)cc2o1 [US11547697, Compound 439] | > 10 µM | > 10 µM | > 10 µM
COc1ncc(-c2ccc3ncc(C(=O)N4CCOCC4)n3c2)cc1N [US11547697, Compound 414] | > 10 µM | > 10 µM | > 10 µM
CCN(CC)CCCn1cnc2ccc(-c3ccc4oc(N)nc4c3)cc2c1=O [US11547697, Compound 281] | > 10 µM | > 10 µM | –
Nc1nc2nc(-c3ccc4ncc(C(=O)N5CCOCC5)n4c3)ccc2o1 [US11547697, Compound 412] | > 10 µM | > 10 µM | > 10 µM

SMILES | IC50 [1] | IC50 [2] | IC50 [3]
CS(=O)(=O)Nc1cc(-c2ccc3ncc(C(=O)N4CCOCC4)n3c2)ccc1Cl [US11547697, Compound 460] | > 10 µM | > 10 µM | > 10 µM
CC1(C)COCCN1C(=O)c1cnc2ccc(-c3ccc4oc(N)nc4c3)cn12 [US11547697, Compound 514] | > 10 µM | > 10 µM | > 10 µM
CN1CCN(C(=O)c2cnc3ccc(-c4ccc5oc(N)nc5c4)cc3n2)CC1 [US11547697, Compound 157] | > 10 µM | > 10 µM | > 10 µM
Nc1nc2cc(-c3ccc4ncc(N5CC(N6CCOCC6)C5)nc4c3)c(Cl)cc2o1 [US11547697, Compound 371] | – | > 10 µM | > 10 µM
Nc1nc2cc(-c3cc(F)c4ncc(C(=O)N5CCOCC5)n4c3)ccc2o1 [US11547697, Compound 438] | > 10 µM | > 10 µM | > 10 µM
Nc1nc2cc(-c3ccc4ncn(C5CCC5)c(=O)c4c3)ccc2o1 [US11547697, Compound 205] | > 10 µM | > 10 µM | > 10 µM
Cc1c(-c2ccc3oc(N)nc3c2)ccc2ncc(N3CC(N4CCOCC4)C3)nc12 [US11547697, Compound 383] | > 10 µM | > 10 µM | > 10 µM
Nc1nc2cc(-c3ccc4ncc(-c5ccnc(N6CCOCC6)c5)nc4c3)ccc2o1 [US11547697, Compound 150] | > 10 µM | > 10 µM | > 10 µM
Cc1nc(NC(=O)N2CCC[C@H]2C(N)=O)sc1-c1ccc2oc(N)nc2c1 [US11547697, Compound 311] | > 10 µM | > 10 µM | > 10 µM
Nc1nc2cc(-c3ccc4ncn(C5CCOCC5)c(=O)c4c3)ccc2o1 [US11547697, Compound 55] | – | > 10 µM | > 10 µM
COC(=O)N1CCC(n2ncc3c(N4CCOCC4)nc(-c4ccc5oc(N)nc5c4)nc32)CC1 [US11547697, Compound 330] | – | > 10 µM | > 10 µM
Nc1nc2cc(-c3ccc4ncc(-c5ccc(N6CCOCC6)nc5)nc4c3)ccc2o1 [US11547697, Compound 167] | > 10 µM | > 10 µM | > 10 µM
Cn1c(N2CCOCC2)nc2cc(-c3ccc4oc(N)nc4c3)ccc2c1=O [US11547697, Compound 80] | > 10 µM | > 10 µM | > 10 µM
CN1CCN(CCCn2cnc3ccc(-c4ccc5oc(N)nc5c4)cc3c2=O)CC1 [US11547697, Compound 291] | > 10 µM | > 10 µM | > 10 µM
Nc1nc2ccc(-c3ccc4ncn(C5CCOCC5)c(=O)c4c3)cc2o1 [US11547697, Compound 63] | > 10 µM | > 10 µM | > 10 µM
CN1CCN(n2cnc3ccc(-c4ccc5oc(N)nc5c4)cc3c2=O)CC1 [US11547697, Compound 446] | > 10 µM | > 10 µM | > 10 µM
CCN1CCC(n2cnc3ccc(-c4ccc5oc(N)nc5c4)cc3c2=O)CC1 [US11547697, Compound 73] | – | > 10 µM | > 10 µM
CC(C)N1CCN(C(=O)c2cnc3ccc(-c4ccc5oc(N)nc5c4)cn23)CC1 [US11547697, Compound 160] | – | > 10 µM | > 10 µM
CN1CCC(c2cnc3ccc(-c4ccc5oc(N)nc5c4)cc3n2)CC1 [US11547697, Compound 385] | – | > 10 µM | > 10 µM
CN(C)C1CCN(C(=O)c2cnc3ccc(-c4ccc5oc(N)nc5c4)cn23)CC1 [US11547697, Compound 304] | > 10 µM | > 10 µM | > 10 µM
Nc1nc2cc(-c3ccc4ncc(C(=O)N5CCC(N)CC5)n4c3)ccc2o1 [US11547697, Compound 204] | – | > 10 µM | > 10 µM
CN1CC(n2cnc3ccc(-c4ccc5oc(N)nc5c4)cc3c2=O)C1 [US11547697, Compound 528] | – | > 10 µM | > 10 µM
CN1CCCN(C(=O)c2cnc3ccc(-c4ccc5oc(N)nc5c4)cn23)CC1 [US11547697, Compound 140] | – | > 10 µM | > 10 µM
